Experimental data taken from US7709566B2, “Polytetrafluoroethylene aqueous dispersion and its product” (Asahi Glass Company, Limited, priority 2005, dated 2010).

Assays:
[1] = Measurement of 1-octanol/water partition coefficient (LogPOW) by HPLC, OECD Test Guideline 117; type: physicochemical; settings: for LogPOW: 1-octanol/water, HPLC, OECD Test Guideline 117, column temperature 40° C.; for bioaccumulation potential: judged from the LogPOW value, compared to APFO
Description: In accordance with OECD Test Guideline 117, 1-octanol/water partition coefficient (LogPOW) of a fluorinated emulsifier was measured by using HPLC (high performance liquid chromatography).
Conditions for the measurement were as follows: column: TOSOH ODS-120T column (φ 4.6 mm×250 mm), eluent: acetonitrile/0.6 mass % of HClO4 solution=1/1 (vol/vol %), flow rate: […], sample amount: 300 μL, column temperature: 40° C., and detection light: UV 210 nm (WO2005-42593).
HPLC was carried out on standard substances (heptanoic acid, octanoic acid, nonanoic acid and decanoic acid) having known 1-octanol/water partition coefficients, and a calibration curve was prepared from the respective elution times and octanol/water partition coefficients of the respective standard substances. Based on this calibration curve, a value of partition coefficient (LogPOW) between 1-octanol and water was calculated from the elution time by HPLC of the fluorinated emulsifier.
Further, in general, in order to judge whether or not a chemical substance is apt to be accumulated in a living organism, a testing method for measurement of a partition coefficient (LogPOW) between 1-octanol and water, is stipulated. As the testing method, in addition to “Partition Coefficient (1-octanol/water) Shake Flask Method” as stipulated in OECD test guideline 107 and in Japanese Industrial Standards Z 7260-107 (2000), a HPLC method (high-performance liquid chromatography) as stipulated and published in OECD Test Guideline 117, is used. A compound having a large partition coefficient value has a large tendency for bioaccumulation, and a compound having a small value means a small tendency for bioaccumulation. In a case where the LogPOW value is less than 3.5, it is considered proper to judge that it is not a high-concentration, and bioaccumulation is also considered to be small.

[2] = tested on: small animal; settings: it has been pointed out; cited from earlier work

Molecule | LogPOW [1] | accumulation potential in a body of a small animal [2] | bioaccumulation potential [1]
N.O=C(O)C(F)(F)C(F)(F)C(F)(F)C(F)(F)C(F)(F)C(F)(F)C(F)(F)F [CF3(CF2)6COONH4, ammonium perfluorooctanoate] | 3.67 | has an accumulation potential | –
N.O=C(O)C(F)(OC(F)(F)C(F)(OC(F)(F)C(F)(F)F)C(F)(F)F)C(F)(F)F (stereo not drawn) [CF3CF2OCF(CF3)CF2OCF(CF3)COONH4] | 4.03 | – | high and higher bioaccumulation potential than APFO
CF3CF2OCF2CF2OCF2COONH4 | 3.13 | – | low
